Results: patent publication US20240009182A1, “REPURPOSED COMPOUND AS THERAPEUTIC FOR HPV-ASSOCIATED CANCERS” (The Chinese University of Hong Kong, priority 2022, published 2024)

Test system: HPV16 E7 protein in CaSki cells
Assay: HPV16 E7 protein level by western blotting in treated CaSki cells
Assay type: cell-based
Details: 15 μM, 24-hr treatment
Excerpt: FIG. 1A. The representative immunoblots showing the level of HPV16 E7 constitutively expressed in CaSki cells upon treatment with inhibitors specific for USP7 (P5091, FT671, GNE-6776 and HBX 19818) and that targeting pan-USPs (PR-619) at the indicated concentrations. DMSO served as a vehicle control treatment. Cells were then collected and lysed, the levels of USP7 and HPV16 E7 proteins were detected using the respective specific antibodies. Beta-actin (β-actin) was included as a loading control. KDa: kilodalton. FIG. 1B. The bar chart showing the relative protein level of HPV16 E7 normalized by β-actin (n=3). Data are expressed as mean±standard error of the mean (SEM); Right panel showing the images at 100× magnification of the morphology of the CaSki cells treated with P5091, FT671, GNE-6776, HBX 19818 and PR-619 at concentrations indicated. FIG. 1C. The immunoblots showing the levels of USP7 and HPV16 E7 proteins in CaSki and C-33A (an HPV-null cervical cancer cell line) upon downregulation of USP7 using siRNA targeting specifically against human USP7. FIG. 1D. The immunoblots showing the protein level of HPV16 E7 treated with different concentrations of HBX 19818. CaSki cells were treated with different concentrations of HBX 19818 or DMSO as indicated. Total cell lysates were subjected to western blotting using USP7, β-actin and HPV16 E7 specific antibodies. FIG. 1E. The bar chart showing the relative protein level of HPV16 E7 treated with different concentrations of HBX 19818 normalized by β-actin (n=3). Data are expressed as mean±SEM. FIG. 1F. The curve chart showing the level of E7 protein with increasing concentrations of HBX 19818 treatment. The percentage of HPV16 E7 protein level was analyzed using the non-linear regression function in GraphPad™ Prism 9. Error bars show standard errors of the mean (SEM). *: P<0.05; […]***: P<0.001.
Firstly, we screened four USP7-specific inhibitors (P5091, FT671. GNE-6776, and HBX 19818) and 1 pan-USPs inhibitor (PR-619) to characterize their inhibitory effect on E7 expression in HPV-containing cancer cells. We treated CaSki (HPV16-positive) cancer cells with P5091 at 5 μM and 10 μM; FT671, GNE-6776 and PR-619 at 3 μM and 15 μM; as well as HBX 19818 at 3 μM and 6 μM. These concentrations were chosen based on the reported IC50 values. After 24-hr treatment, the cells were collected, and total cell lysates were resolved by SDS-PAGE. The expression levels of USP7 and E7 were detected using respective specific antibodies.

For `CCc1c(-c2ccc(C(=O)NC)nc2)cnc(N)c1-c1ccc(O)cc1` [GNE-6776], the “E7 protein level after inhibitor treatment” value was “decreased the E7 protein level drastically”.
